According to patent publication US20080051429A1, “USE OF 4-AMINO-PIPERIDINES FOR TREATING SLEEP DISORDERS” (priority 2006, published 2008):

Tested on: healthy volunteers
Assay: Polysomnography (PSG) sleep study, double-blind, placebo-controlled
Format: in vivo, human
Procedure: A double-blind, placebo-controlled study involving 45 healthy volunteers ranging in age from 40 to 64 was conducted. […] All subjects underwent a two-night screening and baseline PSG evaluation. Additional PSG measurements were performed on the evening of study days 1 and 13. The subjects also completed a Continuous Performance Test (CPT) to assess the potential impact on daytime functioning. […] Of the 45 subjects, 20 of them also underwent a positron emission tomography (PET) study to measure 5-HT2A brain receptor occupancy.
During an assessment period, participants stayed overnight in the clinic for […] from Day −1 to Day 2 and one night from Day 13 to Day 14. Participants underwent a one-night PSG evaluation on the evening of Day 1, following the first dose of treatment and a final one-night PSG evaluation on the evening of Day 13. Between Day 3 and Day 12, participants were at home.
Polysomnographic recordings were performed from 23:00 to 07:00 on the following day.
The drug was dispensed as a solution (in vials) per os (p.o.), in a double-blind fashion as determined by the randomization schedule. The content of the vials was completely consumed followed by the consumption of one vial of water.
Data Analysis: A multivariate analyses of variance (MANOVA) with 5 clusters of sleep parameters as dependent variables (sleep continuity architecture and profile parameters for the visual analysis, and NREM and REM parameters for the spectral power analysis as shown in Table 1) was conducted initially. Change from baseline to the last day of drug administration was assessed by an analysis of covariance with repeated measures (ANCOVA®), with the baseline variables as covariates, to detect group differences (drug at each dose versus placebo) in the PSG sleep findings. For each ANCOVA, two main effects (Treatment, 4 levels, and Study Day, 2 levels) and their interaction were analyzed. Drug to placebo contrasts were calculated as a whole (Day 1 and Day 13 combined) as well as separately for each Study Day. Change from baseline to the last day of drug administration, by group, on the results of the CPT was also analyzed. Additional pharmacodynamic analysis, including the electrographic results obtained on Study Day 1, was performed. SAS® Version 8.2 was used for non-pharmacokinetic parameters and WinNonLin V4.0 was used to compute all pharmacokinetic parameters.

SMILES: CC(C)COc1ccc(CNC(=O)N(Cc2ccc(F)cc2)C2CCN(C)CC2)cc1 [N-(1-methylpiperidin-4-yl)-N-(4-fluorophenylmethyl)-N′-(4-(2-methylpropyloxy)phenylmethyl)carbamide]
- Change in Slow Wave Sleep From Baseline (1 mg, Day 1): 6.4 min
- Change in Slow Wave Sleep From Baseline, Percentage (1 mg, Day 1): 10%
- Duration (min) of wake after sleep onset (1 mg, Day 1): 47.67 min
- Number of awakenings after sleep onset (1 mg, Day 1): 20.22
- SWS duration (1 mg, Day 1): 69.78 min
- Change in Slow Wave Sleep From Baseline (1 mg, Day 13): 5.4 min
- Change in Slow Wave Sleep From Baseline, Percentage (1 mg, Day 13): 9%
- Duration (min) of wake after sleep onset (1 mg, Day 13): 40.06 min
- Number of awakenings after sleep onset (1 mg, Day 13): 20.78
- SWS duration (1 mg, Day 13): 68.78 min
- NREM sleep % (2.5 mg, C): ↑ (↑, <.05)
- NREM sleep duration (2.5 mg, C): ↑ (↑, <.05)
- SWS 2nd third (2.5 mg, C): ↑↑ (↑↑, <.01)
- SWS % (2.5 mg, C): ↑↑ (↑↑, <.01)
- Stage 3% (2.5 mg, C): ↑ (↑, <.05)
- Stage 3 duration (2.5 mg, C): ↑ (↑, <.05)
- Stage 4% (2.5 mg, C): ↑ (↑, <.05)
- Stage 4 duration (2.5 mg, C): ↑ (↑, <.05)
- SWS 2nd third (2.5 mg, D1): ↑ (↑, <.05)
- SWS % (2.5 mg, D1): ↑ (↑, <.05)
- Stage 3% (2.5 mg, D1): ↑ (↑, <.05)
- Stage 3 duration (2.5 mg, D1): ↑ (↑, <.05)
- NREM sleep % (2.5 mg, D13): ↑↑ (↑↑, <.01)
- NREM sleep duration (2.5 mg, D13): ↑ (↑, <.05)
- Change in Slow Wave Sleep From Baseline (2.5 mg, Day 1): 21.8 min
- Change in Slow Wave Sleep From Baseline, Percentage (2.5 mg, Day 1): 40%
- Duration (min) of wake after sleep onset (2.5 mg, Day 1): 51.00 min
- Number of awakenings after sleep onset (2.5 mg, Day 1): 21.44
- SWS duration (2.5 mg, Day 1): 75.83 min
- Change in Slow Wave Sleep From Baseline (2.5 mg, Day 13): 19.6 min
- Change in Slow Wave Sleep From Baseline, Percentage (2.5 mg, Day 13): 36%
- Duration (min) of wake after sleep onset (2.5 mg, Day 13): 30.44 min
- Number of awakenings after sleep onset (2.5 mg, Day 13): 19.78
- SWS duration (2.5 mg, Day 13): 73.61 min
- SWS 1st third (5 mg, C): ↑↑ (↑↑, <.01)
- SWS 2nd third (5 mg, C): ↑↑ (↑↑, <.01)
- SWS % (5 mg, C): ↑↑ (↑↑, <.01)
- Stage 1% (5 mg, C): ↓ (↓, <.05)
- Stage 2% (5 mg, C): ↓ (↓, <.05)
- Stage 3% (5 mg, C): ↑ (↑, <.05)
- Stage 3 duration (5 mg, C): ↑ (↑, <.05)
- Stage 4% (5 mg, C): ↑↑ (↑↑, <.01)
- Stage 4 duration (5 mg, C): ↑↑ (↑↑, <.01)
- SWS 1st third (5 mg, D1): ↑↑ (↑↑, <.01)
- SWS % (5 mg, D1): ↑↑ (↑↑, <.01)
- Stage 1% (5 mg, D1): ↓ (↓, <.05)
- Stage 2% (5 mg, D1): ↓ (↓, <.05)
- Stage 3% (5 mg, D1): ↑ (↑, <.05)
- Stage 3 duration (5 mg, D1): ↑ (↑, <.05)
- Stage 4% (5 mg, D1): ↑↑ (↑↑, <.01)
- Stage 4 duration (5 mg, D1): ↑↑ (↑↑, <.01)
- SWS 1st third (5 mg, D13): ↑ (↑, <.05)
- SWS 2nd third (5 mg, D13): ↑ (↑, <.05)
- SWS % (5 mg, D13): ↑↑ (↑↑, <.01)
- Stage 4% (5 mg, D13): ↑↑ (↑↑, <.01)
- Stage 4 duration (5 mg, D13): ↑↑ (↑↑, <.01)
- Change in Slow Wave Sleep From Baseline (5 mg, Day 1): 37.3 min
- Change in Slow Wave Sleep From Baseline, Percentage (5 mg, Day 1): 65%
- Duration (min) of wake after sleep onset (5 mg, Day 1): 64.56 min
- Number of awakenings after sleep onset (5 mg, Day 1): 20.67
- SWS duration (5 mg, Day 1): 94.89 min
- Change in Slow Wave Sleep From Baseline (5 mg, Day 13): 41.9 min
- Change in Slow Wave Sleep From Baseline, Percentage (5 mg, Day 13): 73%
- Duration (min) of wake after sleep onset (5 mg, Day 13): 43.89 min
- Number of awakenings after sleep onset (5 mg, Day 13): 21.78
- SWS duration (5 mg, Day 13): 99.56 min
- duration and proportion of wake after sleep onset (20 mg): decreased
- NREM sleep % (20 mg, C): ↑↑ (↑↑, <.01)
- NREM sleep duration (20 mg, C): ↑ (↑, <.05)
- SWS 1st third (20 mg, C): ↑↑ (↑↑, <.01)
- SWS 2nd third (20 mg, C): ↑↑ (↑↑, <.01)
- SWS % (20 mg, C): ↑↑ (↑↑, <.01)
- Stage 2 duration (20 mg, C): ↓ (↓, <.05)
- Stage 3% (20 mg, C): ↑ (↑, <.05)
- Stage 3 duration (20 mg, C): ↑ (↑, <.05)
- Stage 4% (20 mg, C): ↑↑ (↑↑, <.01)
- Stage 4 duration (20 mg, C): ↑↑ (↑↑, <.01)
- SWS 2nd third (20 mg, D1): ↑↑ (↑↑, <.01)
- SWS % (20 mg, D1): ↑↑ (↑↑, <.01)
- Stage 2 duration (20 mg, D1): ↓ (↓, <.05)
- Stage 4% (20 mg, D1): ↑↑ (↑↑, <.01)
- Stage 4 duration (20 mg, D1): ↑↑ (↑↑, <.01)
- NREM sleep % (20 mg, D13): ↑↑ (↑↑, <.01)
- SWS 2nd third (20 mg, D13): ↑↑ (↑↑, <.01)
- SWS % (20 mg, D13): ↑↑ (↑↑, <.01)
- Stage 4% (20 mg, D13): ↑↑ (↑↑, <.01)
- Stage 4 duration (20 mg, D13): ↑↑ (↑↑, <.01)
- Change in Slow Wave Sleep From Baseline (20 mg, Day 1): 46.0 min
- Change in Slow Wave Sleep From Baseline, Percentage (20 mg, Day 1): 55%
- Duration (min) of wake after sleep onset (20 mg, Day 1): 33.44 min
- Number of awakenings after sleep onset (20 mg, Day 1): 20.89
- SWS duration (20 mg, Day 1): 129.94 min
- Change in Slow Wave Sleep From Baseline (20 mg, Day 13): 39.0 min
- Change in Slow Wave Sleep From Baseline, Percentage (20 mg, Day 13): 46%
- Duration (min) of wake after sleep onset (20 mg, Day 13): 29.89 min
- Number of awakenings after sleep onset (20 mg, Day 13): 18.89
- SWS duration (20 mg, Day 13): 122.94 min
- REM sleep duration, proportion of REM sleep, REM sleep latency, REM activity or REM density (in words): no effect
- latency to sleep onset (in words): did not alter
- number of awakenings after sleep onset, drug to placebo contrasts (the 4 doses, most significant in 2.5 mg and 5 mg groups): significantly decreased
